Calls of active or inactive are those of the source. No cut-off for these calls is given here.
Tests used:
MDA-MB-231 [1] = assay: Inhibition of cell migration in human MDA-MB-231 cells reduction of cell assessed as cells migrated into scratched area at 2 uM after 24 hrs by wound healing assay; format: functional; details: MDA-MB-231, 24 h
MDA-MB-231 [2] = assay: Inhibition of cell migration in human MDA-MB-231 cells assessed as reduction of cell migrated into scratched area at 10 uM after 24 hrs by wound healing assay; format: functional; details: MDA-MB-231, 24 h
MDA-MB-231 [3] = assay: Down-regulation of uPAR mRNA expression in human MDA-MB-231 cells at 2 to 10 uM after 24 hrs by RT-PCR analysis; format: functional, cell-based
[4] = biological target: Ras-related C3 botulinum toxin substrate 1 (Homo sapiens) (UniProt P63000); assay: Inhibition of Rac1 in human MDA-MB-231 cells at 10 uM after 30 mins by G-LISA activity assay; format: cell-based
MDA-MB-231 [5] = assay: Cytotoxicity against human MDA-MB-231 cells assessed as cell viability up to 10 uM after 24 hrs by MTT assay relative to control; format: cell-based; details: mda-mb-231, 24 h
[6] = biological target: Urokinase-type plasminogen activator (Homo sapiens) (UniProt P00749); assay: Inhibition of uPA activity in human MDA-MB-231 cells at 5 uM; format: cell-based; set-up: scale not given: the % may be the effect or the level left
MDA-MB-231 [7] = assay: Down-regulation of uPA mRNA expression in human MDA-MB-231 cells after 24 hrs by RT-PCR analysis; format: functional, cell-based
MDA-MB-231 [8] = assay: Antiinvasion activity in human MDA-MB-231 cells reduction of cell assessed as inhibition of FBS-induced cell invaded to lower surface at 2 uM after 24 hrs; format: functional; details: MDA-MB-231, 24 h
[9] = biological target: Ras-related C3 botulinum toxin substrate 1 (Homo sapiens) (UniProt P63000); assay: Inhibition of Rac1-mediated WAVE-2/Arp2/3 expression in human MDA-MB-231 cells after […] by Western blotting analysis; format: cell-based
[10] = biological target: Ras-related C3 botulinum toxin substrate 1 (Homo sapiens) (UniProt P63000); assay: Inhibition of Rac1 in human MDA-MB-231 cells at 5 uM after 30 mins by G-LISA activity assay; format: cell-based
MDA-MB-231 [11] = assay: Inhibition of cell migration in human MDA-MB-231 reduction of cell assessed as cells migrated into scratched area at 5 uM after 24 hrs by wound healing assay; format: functional; details: MDA-MB-231, 24 h
MDA-MB-231 [12] = assay: Antiinvasion activity in human MDA-MB-231 cells reduction of cell assessed as inhibition of FBS-induced cell invaded to lower surface at 5 uM after 24 hrs; format: functional; details: MDA-MB-231, 24 h
MDA-MB-231 [13] = assay: Inhibition of NF-kappaB activation in human MDA-MB-231 cells after 24 hrs by luciferase assay; format: cell-based
MDA-MB-231 [14] = assay: Antiinvasion activity in human MDA-MB-231 cells reduction of cell assessed as inhibition of FBS-induced cell invaded to lower surface at 10 uM after 24 hrs; format: functional; details: MDA-MB-231, 24 h
Homo sapiens = species on record: Homo sapiens; assay: Inhibition of DNA binding of NF-kappaB (unknown origin) on uPA promoter at 10 uM by ChIP assay
[15] = biological target: Urokinase-type plasminogen activator (Homo sapiens) (UniProt P00749); assay: Inhibition of uPA activity in human MDA-MB-231 cells at 10 uM; format: cell-based; set-up: scale not given: the % may be the effect or the level left
[16] = Cytotoxicity against human MDA-MB-231 cells assessed as cell viability at 40 uM after 24 hrs by MTT assay relative to control; format: cell-based; details: read-out: Activity
[17] = biological target: Ras-related C3 botulinum toxin substrate 1 (Homo sapiens) (UniProt P63000); assay: Inhibition of Rac1 in human MDA-MB-231 cells at 2 uM after 30 mins by G-LISA activity assay; format: cell-based

COc1cc(/C=C/c2ccc(O)cc2)cc(OC)c1 [PTEROSTILBENE]
inhibition at 2 µM (MDA-MB-231 [1]): 25%
inhibition at 10 µM (MDA-MB-231 [2]): 76%
Activity (MDA-MB-231 [3]): inactive
inhibition [4]: 27%
Activity (MDA-MB-231 [5]): Non-toxic
Activity [6]: 25%
Activity (MDA-MB-231 [7]): Dose-dependent effect
inhibition at 2 µM (MDA-MB-231 [8]): 20%
inhibition [9]: Dose-dependent effect
inhibition [10]: 22%
inhibition at 5 µM (MDA-MB-231 [11]): 59%
inhibition at 5 µM (MDA-MB-231 [12]): 29%
inhibition (MDA-MB-231 [13]): Dose-dependent effect
inhibition at 10 µM (MDA-MB-231 [14]): 38%
inhibition (Homo sapiens): Active
Activity [15]: 61%
viability at 24 h, 40 µM [16]: 40%
inhibition [17]: 14%

Reference: ChEMBL document CHEMBL3112584, “Urokinase-type plasminogen activator expression and Rac1/WAVE-2/Arp2/3 pathway are blocked by pterostilbene to suppress cell migration and invasion in MDA-MB-231 cells” (Bioorg Med Chem Lett, 2014)
